Data reported in ChEMBL document CHEMBL1155440, “1-(5-carboxyindol-1-yl)propan-2-one inhibitors of human cytosolic phospholipase A(2)alpha with reduced lipophilicity: synthesis, biological activity, metabolic stability, solubility, bioavailability, and topical in vivo activity” (J Med Chem, 2010).
The source made the active and inactive calls. The calls are words filed in the database; no cut-off is given here.

How the values were obtained:
[1] = target: Phospholipase A2, major isoenzyme (Sus scrofa) (UniProt P00592); assay: Inhibition of pig pancreas group 1B sPLA2 assessed as inhibition of POPG cleavage at 10 uM after 30 mins by HPLC analysis
Sequence of Phospholipase A2, major isoenzyme (Sus scrofa) (P00592 23-146 limits assumed): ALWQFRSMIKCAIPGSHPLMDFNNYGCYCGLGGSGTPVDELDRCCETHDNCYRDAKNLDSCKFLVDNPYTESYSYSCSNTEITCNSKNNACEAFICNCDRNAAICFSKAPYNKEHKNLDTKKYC

[2] = target: T1, 85/88 kDa calcium-independent phospholipase A2 (Rattus norvegicus) (UniProt P97570); assay: Inhibition of Sprague-Dawley rat brain iPLA2 assessed as inhibition of substrate cleavage at 10 uM after 60 mins by HPLC analysis
T1 sequence (whole entry): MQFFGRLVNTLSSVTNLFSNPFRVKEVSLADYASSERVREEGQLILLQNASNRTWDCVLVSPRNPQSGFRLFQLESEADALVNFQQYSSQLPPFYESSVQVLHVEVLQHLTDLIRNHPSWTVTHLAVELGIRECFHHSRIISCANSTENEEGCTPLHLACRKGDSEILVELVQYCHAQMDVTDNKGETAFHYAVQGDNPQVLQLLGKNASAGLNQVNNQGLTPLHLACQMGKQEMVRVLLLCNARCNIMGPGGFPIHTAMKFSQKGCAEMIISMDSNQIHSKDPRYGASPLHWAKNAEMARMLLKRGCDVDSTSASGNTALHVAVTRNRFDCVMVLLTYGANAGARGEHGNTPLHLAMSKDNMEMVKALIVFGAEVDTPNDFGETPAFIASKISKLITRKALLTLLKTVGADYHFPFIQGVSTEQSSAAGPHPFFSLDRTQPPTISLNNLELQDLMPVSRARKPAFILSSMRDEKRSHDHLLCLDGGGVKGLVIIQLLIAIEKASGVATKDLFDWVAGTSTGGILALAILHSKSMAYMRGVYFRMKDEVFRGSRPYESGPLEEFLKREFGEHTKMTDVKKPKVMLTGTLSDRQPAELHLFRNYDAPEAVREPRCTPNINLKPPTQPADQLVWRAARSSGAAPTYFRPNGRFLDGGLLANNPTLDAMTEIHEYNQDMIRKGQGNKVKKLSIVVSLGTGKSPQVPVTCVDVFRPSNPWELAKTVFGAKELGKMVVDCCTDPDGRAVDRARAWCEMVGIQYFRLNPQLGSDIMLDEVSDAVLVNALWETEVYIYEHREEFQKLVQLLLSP

Mus musculus [3] = assay: Antiinflammatory activity in BALB/c mouse assessed as inhibition of benzalkonium chloride-induced ear edema at 0.1 to 1 mg/ear administered topically after 10 mins of benzalkonium chloride challenge measured after 5 hrs of induction of dermatitis; type: functional, organism-based
Mus musculus [4] = assay: Antiinflammatory activity in BALB/c mouse assessed as inhibition of benzalkonium chloride-induced ear edema at 0.1 to 1 mg/ear administered topically after 10 mins of benzalkonium chloride challenge measured after 1 hr of induction of dermatitis; type: functional, organism-based
[5] = Inhibition of TPA-induced cPLA2alpha in human platelets assessed as inhibition of arachidonic acid production after 60 mins by UV-reverse phase HPLC analysis; conditions: 1 h
Mus musculus [6] = assay: Antiinflammatory activity in BALB/c mouse assessed as inhibition of benzalkonium chloride-induced ear edema at 0.1 to 1 mg/ear administered topically after 10 mins of benzalkonium chloride challenge measured after 7 hrs of induction of dermatitis; type: functional, organism-based
Mus musculus [7] = assay: Antiinflammatory activity in BALB/c mouse assessed as inhibition of benzalkonium chloride-induced ear edema at 0.005 mg/ear administered topically after 10 mins of benzalkonium chloride challenge measured after 7 hrs of induction of dermatitis; type: functional
Mus musculus [8] = assay: Antiinflammatory activity in BALB/c mouse assessed as inhibition of benzalkonium chloride-induced ear edema at 0.01 mg/ear administered topically after 10 mins of benzalkonium chloride challenge measured after 5 to 7 hrs of induction of dermatitis; type: functional, organism-based
Mus musculus [9] = assay: Antiinflammatory activity in BALB/c mouse assessed as inhibition of benzalkonium chloride-induced ear edema at 0.1 mg/ear administered topically after 10 mins of benzalkonium chloride challenge measured after 7 hrs of induction of dermatitis; type: functional
[10] = Partition coefficient, log P at 5 mM by reverse phase HPLC analysis; type: physicochemical; conditions: octanol/water
Mus musculus [11] = assay: Antiinflammatory activity in topically dosed BALB/c mouse assessed as inhibition of benzalkonium chloride-induced ear edema administered after 10 mins of benzalkonium chloride challenge measured after 1 to 7 hrs of induction of dermatitis; type: functional, organism-based
[12] = Inhibition of cPLA2alpha
[13] = Metabolic stability in rat liver microsomes assessed as compound remaining after 30 mins by HPLC/MS analysis; type: ADME, Microsome; conditions: read-out: Stability
[14] = Inhibition of human platelet cPLA2alpha assessed as inhibition of arachidonic acid production after 60 mins by UV-reverse phase HPLC analysis; conditions: 1 h
[15] = Thermodynamic solubility in sodium phosphate buffer of pH 7.4 by UV-reverse phase HPLC analysis; type: physicochemical
[16] = Drug level in C57Bl6 mouse plasma at 100 mg/kg, po after 1 hr by UV-reverse phase HPLC analysis; type: ADME, organism-based; parameters: dose 100 mg/kg, route oral; conditions: read-out: Drug uptake
[17] = Drug level in C57Bl6 mouse bile at 100 mg/kg, po after 2 hrs by HPLC/MS analysis; type: ADME, organism-based; parameters: dose 100 mg/kg, route oral; conditions: read-out: Drug uptake
[18] = Drug level in C57Bl6 mouse plasma at 10 mg/kg, po after 2 hrs by UV-reverse phase HPLC analysis; type: ADME, organism-based; parameters: dose 10 mg/kg, route oral; conditions: read-out: Drug uptake
[19] = Drug level in C57Bl6 mouse plasma at 10 mg/kg, iv after 5 mins by UV-reverse phase HPLC analysis; type: ADME, organism-based; parameters: dose 10 mg/kg, route intravenous; conditions: read-out: Drug uptake
[20] = Drug level in C57Bl6 mouse plasma at 10 mg/kg, iv after 30 mins by UV-reverse phase HPLC analysis; type: ADME, organism-based; parameters: dose 10 mg/kg, route intravenous; conditions: read-out: Drug uptake
[21] = Drug level in C57Bl6 mouse plasma at 100 mg/kg, po after 2 hrs by UV-reverse phase HPLC analysis; type: ADME, organism-based; parameters: dose 100 mg/kg, route oral; conditions: read-out: Drug uptake
[22] = Drug level in C57Bl6 mouse bile at 10 mg/kg, iv after 30 mins by HPLC/MS analysis; type: ADME, organism-based; parameters: dose 10 mg/kg, route intravenous; conditions: read-out: Drug uptake
[23] = Drug level in C57Bl6 mouse plasma at 10 mg/kg, po after 1 hr by UV-reverse phase HPLC analysis; type: ADME, organism-based; parameters: dose 10 mg/kg, route oral; conditions: read-out: Drug uptake
Homo sapiens = organism: Homo sapiens; assay: Inhibition of human platelet cPLA2alpha assessed as inhibition of arachidonic acid production at 33 nM after 60 mins by UV-reverse phase HPLC analysis

## O=C(O)CC[C@@H](Cc1ccc(OCc2ccccc2)cc1)NC(=O)CCCCCCc1ccccc1
[1]
  inhibition: 89%

## CC(C)C(=O)c1cn(CC(=O)COc2ccc(Oc3ccccc3)cc2)c2ccc(C(=O)O)cc12
[2]
  inhibition: inactive
Mus musculus [3]
  inhibition: Active
Mus musculus [4]
  inhibition: Active
[5]
  IC50: 15 nM
Mus musculus [6]
  inhibition: Active
Mus musculus [7]
  inhibition (INH): 90%
[1]
  inhibition: inactive
Mus musculus [8]
  inhibition: inactive
Mus musculus [9]
  inhibition (INH): 84%
[10]
  logP at 5000 µM: 3.5
Mus musculus [11]
  inhibition: Dose-dependent effect

## CCCCCCCCc1ccc(OCC(=O)Cn2ccc3cc(C(N)=O)ccc32)cc1
[12]
  IC50: 35 nM
[13]
  remaining at 0.5 h: 54%
[14]
  IC50: 120 nM
[15]
  solubility thermodynamic: < 3 µg/mL
[10]
  logP at 5000 µM: 5.5

## CC(C)C(=O)c1cn(CC(O)COc2ccc(Oc3ccccc3)cc2)c2ccc(C(=O)O)cc12 (centres undefined)
[16]
  concentration at 1 h: 1700 ng/mL
[17]
  concentration at 2 h: 42000 ng/mL
[18]
  concentration at 2 h: 34000 ng/mL
[19]
  concentration at 5 min: 6200 ng/mL
[20]
  concentration at 0.5 h: 500 ng/mL
[21]
  concentration at 2 h: 300 ng/mL
[22]
  concentration at 0.5 h: 96000 ng/mL
[23]
  concentration at 1 h: 42000 ng/mL

## CCCCCCCCc1ccc(OCC(=O)Cn2ccc3cc(C(=O)O)ccc32)cc1
Homo sapiens
  inhibition: 47%
[12]
  IC50: 120 nM
[10]
  logP at 5000 µM: 6.3

## O=C1O/C(=C/Br)CCC1c1cccc2ccccc12 (centres undefined)
[2]
  inhibition: 50%
